Measured values reported in ChEMBL document CHEMBL5331080, “Discovery of tetrahydrofuranyl spirooxindole-based SMYD3 inhibitors against gastric cancer via inducing lethal autophagy” (Eur J Med Chem, 2023).
Activity calls are given as the source filed them. The rule behind the calls is not given here.

Columns and labels:
BGC-823 [1] = test: Antiproliferative activity against human BGC-823 cells assessed as inhibition of cell proliferation by MTT assay; type: functional, cell-based
[2] = target: T1, Histone-lysine N-methyltransferase SMYD3 (Homo sapiens) (UniProt Q9H7B4); test: (§1) Inhibition of GST-tagged SMYD3 (unknown origin) using biotinylated MAP3K2 peptide as substrate incubated for 1 hrs by TR-FRET based assay
T1 sequence (whole entry): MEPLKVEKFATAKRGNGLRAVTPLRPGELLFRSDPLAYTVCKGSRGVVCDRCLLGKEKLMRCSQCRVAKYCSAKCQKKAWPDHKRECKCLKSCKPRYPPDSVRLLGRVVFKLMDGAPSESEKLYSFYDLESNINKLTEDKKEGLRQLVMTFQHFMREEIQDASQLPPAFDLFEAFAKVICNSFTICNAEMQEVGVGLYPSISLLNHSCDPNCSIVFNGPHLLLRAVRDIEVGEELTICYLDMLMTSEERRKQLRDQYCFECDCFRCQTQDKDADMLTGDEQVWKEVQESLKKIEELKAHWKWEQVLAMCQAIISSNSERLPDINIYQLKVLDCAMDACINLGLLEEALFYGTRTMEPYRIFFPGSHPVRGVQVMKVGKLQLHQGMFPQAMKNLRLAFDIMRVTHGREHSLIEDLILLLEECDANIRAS

HGC-27 = test: Antiproliferative activity against human HGC-27 cells assessed as inhibition of cell proliferation by MTT assay; type: functional, cell-based
BGC-823 [3] = test: Inhibition of autophagic flux in human BGC-823 cells assessed as LC3-II accumulation incubated for 24 hrs in the presence of 3-MA by Western blot analysis; type: functional, cell-based
[4] = target: T1, Histone-lysine N-methyltransferase SMYD3 (Homo sapiens); test: Inhibition of SMYD3 in human BGC-823 cells assessed as suppression of H3K4 methylation level at 1 uM by Western blot analysis; type: cell-based
BGC-823 [5] = test: Inhibition of autophagic flux in human BGC-823 cells transfected with Akt1 siRNA assessed as p62 accumulation incubated for 24 hrs by Western blot analysis; type: functional, cell-based
BGC-823 [6] = test: Antiproliferative activity against human BGC-823 cells xenografted in Balb/c nude mouse assessed as induction of autophagy by measuring increase in LC3-II staining at 15 to 30 mg/kg, ip by immunohistochemistry analysis; type: functional, organism-based; conditions: dose 15-30 mg/kg
BGC-823 [7] = test: Antiproliferative activity against human BGC-823 cells assessed as reduction in cell viability incubated for 48 hrs in the presence of 3-MA by MTT assay; type: functional, cell-based
BGC-823 [8] = test: Effect on total H3 expression level in human BGC-823 cells at 1 uM by Western blot analysis; type: functional, cell-based
BGC-823 [9] = test: Antitumor activity against human BGC-823 cells xenografted in ip dosed Balb/c nude mouse assessed as suppression of tumor weight; type: functional, organism-based; conditions: dose 15-30 mg/kg
[10] = target: T1, Histone-lysine N-methyltransferase SMYD3 (Homo sapiens); test: Inhibition of SMYD3-induced Akt1 lysine methylation in human BGC-823 cells at 1 uM by Western blot analysis; type: cell-based
[11] = target: Histone-lysine N-methyltransferase EZH2 (Homo sapiens) (UniProt Q15910); test: Inhibition of EZH2 (unknown origin)
[12] = target: T2, Histone-lysine N-methyltransferase SMYD3 (Homo sapiens, UniProt Q9H7B4); test: as §1
T2 sequence (Q9H7B4 whole entry): T1 sequence (whole entry)

[13] = target: T1, Histone-lysine N-methyltransferase SMYD3 (Homo sapiens); test: Inhibition of SMYD3 in human BGC-823 cells transfected with SMYD3 siRNA assessed as suppression of H3K4 methylation level by Western blot analysis; type: cell-based
BGC-823 [14] = test: Inhibition of autophagic flux in human BGC-823 cells assessed as inhibition of autophagosome-lysosome fusion by measuring suppression of GFP-LC3 and LAMP1 intracellular co-localization incubated for 24 hrs by DAPI staining based immunofluorescence analysis; type: functional, cell-based
BGC-823 [15] = test: Induction of autophagy in human BGC-823 cells transfected with GFP-LC3 assessed as increase in GFP-LC3 fluorescent puncta in the presence of 3-MA by DAPI staining based immunofluorescence analysis; type: functional, cell-based
BGC-823 [16] = test: Inhibition of autophagic flux in human BGC-823 cells transfected with Akt1 siRNA assessed as LC3 cleavage incubated for 24 hrs by Western blot analysis; type: functional, cell-based
[17] = target: T1, Histone-lysine N-methyltransferase SMYD3 (Homo sapiens); test: Inhibition of SMYD3 in human BGC-823 cells assessed as translocation of SMYD3 from nucleus to cytoplasm by DAPI staining based analysis; type: cell-based
BGC-823 [18] = test: Antiproliferative activity against human BGC-823 cells xenografted in Balb/c nude mouse assessed as induction of autophagy by measuring increase in p62 staining at 15 to 30 mg/kg, ip by immunohistochemistry analysis; type: functional, organism-based; conditions: dose 15-30 mg/kg
BGC-823 [19] = test: Antitumor activity against human BGC-823 cells xenografted in ip dosed Balb/c nude mouse assessed as suppression of tumor growth; type: functional, organism-based; conditions: dose 15-30 mg/kg
[20] = Toxicity in Balb/c nude mouse xenografted with human BGC-823 cells assessed as change in body weight at 15 to 30 mg/kg, ip; type: organism-based; conditions: in vivo, dose 15-30 mg/kg
BGC-823 [21] = test: Induction of autophagy in human BGC-823 cells assessed as autophagic vacuoles by transmission electron microscopic analysis; type: functional, cell-based
BGC-823 [22] = test: Antiproliferative activity against human BGC-823 cells transfected with […] siRNA assessed as reduction in cell viability incubated for 48 hrs by MTT assay; type: functional, cell-based
Mus musculus [23] = test: Effect on total SMYD3 protein level in Balb/c nude mouse xenografted with human BGC-823 cells at 15 to 30 mg/kg, ip by immunohistochemistry analysis; type: functional, organism-based; conditions: dose 15-30 mg/kg
BGC-823 [24] = test: Inhibition of autophagic flux in human BGC-823 cells transfected with Akt1 siRNA assessed as increase in mTOR incubated for 24 hrs by Western blot analysis; type: functional, cell-based
BGC-823 [25] = test: Inhibition of autophagic flux in human BGC-823 cells assessed as p62 accumulation incubated for 24 hrs in the presence of 3-MA by Western blot analysis; type: functional, cell-based
[26] = target: N-lysine methyltransferase SMYD2 (Homo sapiens) (UniProt Q9NRG4); test: Inhibition of SMYD2 (unknown origin)
BGC-823 [27] = test: Effect on total H3 methylation level in human BGC-823 cells at 1 uM by Western blot analysis; type: functional, cell-based
BGC-823 [28] = test: Antitumor activity against human BGC-823 cells xenografted in ip dosed Balb/c nude mouse assessed as suppression of tumor volume; type: functional, organism-based; conditions: dose 15-30 mg/kg
[29] = target: Histone-lysine N-methyltransferase, H3 lysine-79 specific (Homo sapiens) (UniProt Q8TEK3); test: Inhibition of DOT1L (unknown origin)
[30] = target: T3, Histone-lysine N-methyltransferase EHMT2 (Homo sapiens) (UniProt Q96KQ7); test: Inhibition of G9a (unknown origin)
T3 sequence (whole entry): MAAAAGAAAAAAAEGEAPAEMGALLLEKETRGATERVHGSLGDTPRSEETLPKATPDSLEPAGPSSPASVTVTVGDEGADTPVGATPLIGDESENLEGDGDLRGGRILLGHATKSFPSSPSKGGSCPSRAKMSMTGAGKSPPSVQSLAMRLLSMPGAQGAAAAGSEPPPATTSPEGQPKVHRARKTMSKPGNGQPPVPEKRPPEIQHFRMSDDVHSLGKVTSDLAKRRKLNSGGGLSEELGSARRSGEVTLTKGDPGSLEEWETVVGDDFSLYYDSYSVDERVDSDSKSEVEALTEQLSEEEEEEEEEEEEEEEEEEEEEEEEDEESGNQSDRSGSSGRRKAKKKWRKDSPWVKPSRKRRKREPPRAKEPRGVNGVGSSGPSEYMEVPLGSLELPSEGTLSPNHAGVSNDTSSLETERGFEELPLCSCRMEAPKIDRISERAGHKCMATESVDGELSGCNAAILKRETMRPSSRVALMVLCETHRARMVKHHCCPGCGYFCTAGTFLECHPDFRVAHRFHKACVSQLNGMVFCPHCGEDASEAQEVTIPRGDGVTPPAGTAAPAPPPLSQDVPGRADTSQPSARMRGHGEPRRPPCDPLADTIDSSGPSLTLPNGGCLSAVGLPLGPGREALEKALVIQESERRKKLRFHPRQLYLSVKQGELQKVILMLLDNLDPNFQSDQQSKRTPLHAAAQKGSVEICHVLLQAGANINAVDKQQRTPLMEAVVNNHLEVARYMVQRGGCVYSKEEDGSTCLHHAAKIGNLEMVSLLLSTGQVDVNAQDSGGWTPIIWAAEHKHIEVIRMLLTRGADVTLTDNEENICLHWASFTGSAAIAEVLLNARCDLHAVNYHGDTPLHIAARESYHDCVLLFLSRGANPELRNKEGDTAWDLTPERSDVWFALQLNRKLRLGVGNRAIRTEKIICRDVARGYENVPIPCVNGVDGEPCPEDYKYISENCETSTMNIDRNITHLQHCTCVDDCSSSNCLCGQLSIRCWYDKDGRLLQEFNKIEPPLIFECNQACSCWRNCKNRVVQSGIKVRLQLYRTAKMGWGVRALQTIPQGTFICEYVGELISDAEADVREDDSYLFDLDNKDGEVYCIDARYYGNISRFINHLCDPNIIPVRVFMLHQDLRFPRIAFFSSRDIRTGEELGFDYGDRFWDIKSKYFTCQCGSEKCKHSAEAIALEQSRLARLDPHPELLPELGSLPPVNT

[31] = Toxicity in Balb/c nude mouse xenografted with human BGC-823 cells assessed as change in main organs morphology at 15 to 30 mg/kg, ip by H&E staining based analysis; type: organism-based; conditions: in vivo, dose 15-30 mg/kg
Mus musculus [32] = test: Effect on total Akt protein level in Balb/c nude mouse xenografted with human BGC-823 cells at 15 to 30 mg/kg, ip by immunohistochemistry analysis; type: functional, organism-based; conditions: dose 15-30 mg/kg
BGC-823 [33] = test: Induction of autophagy in human BGC-823 cells transfected with GFP-LC3 assessed as increase in GFP-LC3 fluorescent puncta by DAPI staining based immunofluorescence analysis; type: functional, cell-based

Sequence of N-lysine methyltransferase SMYD2 (Homo sapiens) (Q9NRG4 whole entry): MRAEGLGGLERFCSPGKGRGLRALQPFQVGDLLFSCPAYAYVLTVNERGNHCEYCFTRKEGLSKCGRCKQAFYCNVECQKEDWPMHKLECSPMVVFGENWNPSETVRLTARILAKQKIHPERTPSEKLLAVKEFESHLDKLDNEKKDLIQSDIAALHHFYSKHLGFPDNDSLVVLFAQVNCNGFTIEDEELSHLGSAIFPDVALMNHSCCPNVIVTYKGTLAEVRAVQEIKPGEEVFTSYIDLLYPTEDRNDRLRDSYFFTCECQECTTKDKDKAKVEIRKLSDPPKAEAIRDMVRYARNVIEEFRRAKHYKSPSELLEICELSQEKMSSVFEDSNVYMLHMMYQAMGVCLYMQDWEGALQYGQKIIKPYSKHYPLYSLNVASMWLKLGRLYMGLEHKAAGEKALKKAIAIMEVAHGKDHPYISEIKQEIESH
Sequence of Histone-lysine N-methyltransferase EZH2 (Homo sapiens) (Q15910 whole entry, looked up): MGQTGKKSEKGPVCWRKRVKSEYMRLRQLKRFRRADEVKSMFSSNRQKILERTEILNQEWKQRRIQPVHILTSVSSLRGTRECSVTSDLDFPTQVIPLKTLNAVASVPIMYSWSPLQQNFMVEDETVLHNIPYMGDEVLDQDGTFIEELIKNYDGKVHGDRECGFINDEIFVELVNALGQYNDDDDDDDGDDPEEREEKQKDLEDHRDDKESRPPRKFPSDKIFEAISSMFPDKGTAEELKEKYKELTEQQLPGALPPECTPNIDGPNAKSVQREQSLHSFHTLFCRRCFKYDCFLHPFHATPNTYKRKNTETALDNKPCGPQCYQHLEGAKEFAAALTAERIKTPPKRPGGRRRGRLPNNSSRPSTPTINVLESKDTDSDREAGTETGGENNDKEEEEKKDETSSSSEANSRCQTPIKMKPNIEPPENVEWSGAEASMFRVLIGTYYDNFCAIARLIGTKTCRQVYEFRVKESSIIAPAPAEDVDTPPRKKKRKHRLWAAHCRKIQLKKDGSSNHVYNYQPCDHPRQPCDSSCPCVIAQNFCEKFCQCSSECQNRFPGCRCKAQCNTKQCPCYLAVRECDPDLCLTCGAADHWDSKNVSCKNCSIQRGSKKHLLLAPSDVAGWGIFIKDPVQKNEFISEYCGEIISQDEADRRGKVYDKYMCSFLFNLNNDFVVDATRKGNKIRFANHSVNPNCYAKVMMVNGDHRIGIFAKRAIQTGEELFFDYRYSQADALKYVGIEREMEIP
Sequence of Histone-lysine N-methyltransferase, H3 lysine-79 specific (Homo sapiens) (Q8TEK3 whole entry, looked up): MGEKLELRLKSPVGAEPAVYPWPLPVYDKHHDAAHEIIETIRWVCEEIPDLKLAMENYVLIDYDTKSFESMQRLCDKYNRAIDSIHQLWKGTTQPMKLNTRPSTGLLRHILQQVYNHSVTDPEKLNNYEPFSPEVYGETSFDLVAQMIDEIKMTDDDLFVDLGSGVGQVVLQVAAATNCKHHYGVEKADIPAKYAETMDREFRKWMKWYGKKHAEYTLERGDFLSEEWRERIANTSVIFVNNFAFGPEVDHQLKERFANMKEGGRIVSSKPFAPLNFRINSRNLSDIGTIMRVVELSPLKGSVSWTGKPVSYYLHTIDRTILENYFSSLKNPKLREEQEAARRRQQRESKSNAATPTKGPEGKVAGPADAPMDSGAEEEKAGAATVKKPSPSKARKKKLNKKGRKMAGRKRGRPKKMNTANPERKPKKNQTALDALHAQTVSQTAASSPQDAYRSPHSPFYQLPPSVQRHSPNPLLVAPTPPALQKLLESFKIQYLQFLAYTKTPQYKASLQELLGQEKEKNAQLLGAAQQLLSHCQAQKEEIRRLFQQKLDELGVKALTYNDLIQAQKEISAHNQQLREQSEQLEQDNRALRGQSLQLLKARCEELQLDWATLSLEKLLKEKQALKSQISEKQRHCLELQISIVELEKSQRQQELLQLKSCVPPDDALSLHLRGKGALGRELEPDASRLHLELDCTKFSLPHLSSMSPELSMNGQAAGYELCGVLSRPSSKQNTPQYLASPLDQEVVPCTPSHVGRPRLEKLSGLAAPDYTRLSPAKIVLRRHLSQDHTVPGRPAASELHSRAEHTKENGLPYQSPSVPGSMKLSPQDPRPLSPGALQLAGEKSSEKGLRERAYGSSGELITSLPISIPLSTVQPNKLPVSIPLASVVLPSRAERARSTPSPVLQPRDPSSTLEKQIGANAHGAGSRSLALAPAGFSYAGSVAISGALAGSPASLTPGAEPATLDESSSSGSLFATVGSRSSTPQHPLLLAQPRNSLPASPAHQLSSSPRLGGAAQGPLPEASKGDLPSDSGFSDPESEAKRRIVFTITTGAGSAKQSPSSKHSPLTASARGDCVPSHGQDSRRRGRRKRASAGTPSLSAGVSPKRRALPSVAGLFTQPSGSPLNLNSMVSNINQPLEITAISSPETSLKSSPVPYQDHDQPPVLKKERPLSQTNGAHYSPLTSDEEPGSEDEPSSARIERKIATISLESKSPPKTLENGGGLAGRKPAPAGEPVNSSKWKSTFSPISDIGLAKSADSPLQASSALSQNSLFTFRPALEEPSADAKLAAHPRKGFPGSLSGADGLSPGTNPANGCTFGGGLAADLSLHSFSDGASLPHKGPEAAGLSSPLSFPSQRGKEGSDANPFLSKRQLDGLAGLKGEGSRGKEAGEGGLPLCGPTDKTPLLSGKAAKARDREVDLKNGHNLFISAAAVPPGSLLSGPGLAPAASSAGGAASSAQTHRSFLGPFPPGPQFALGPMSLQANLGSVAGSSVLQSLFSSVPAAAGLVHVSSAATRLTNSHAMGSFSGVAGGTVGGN

SMILES: O=C1N(Cc2ccccc2)C[C@@H]2[C@@H](c3ccc(Cl)cc3Cl)[C@]3(O[C@]12O)C(=O)Nc1ccccc13
- Activity (BGC-823 [1]): Active
- inhibition [2]: Active
- Activity (HGC-27): Active

SMILES: COc1ccc([C@@H]2[C@H]3CN(Cc4ccccc4)C(=O)[C@@]3(O)O[C@]23C(=O)Nc2ccccc23)cc1OC
- Activity (BGC-823 [1]): Active
- inhibition [2]: Active
- Activity (HGC-27): Active

SMILES: O=C1N(Cc2ccccc2)C[C@@H]2[C@@H](c3cccs3)[C@]3(O[C@]12O)C(=O)Nc1ccccc13
- Activity (BGC-823 [1]): Active
- inhibition [2]: Active
- Activity (HGC-27): Active

SMILES: Cc1ccc([C@@H]2[C@H]3CN(Cc4ccccc4)C(=O)[C@@]3(O)O[C@]23C(=O)Nc2ccccc23)cc1
- Activity (BGC-823 [1]): Active
- inhibition [2]: Active
- Activity (HGC-27): Active

SMILES: O=C1N(Cc2ccccc2)C[C@@H]2[C@@H](c3ccc4ccccc4c3)[C@]3(O[C@]12O)C(=O)Nc1ccccc13
- Activity (BGC-823 [1]): Active
- inhibition [2]: Active
- Activity (HGC-27): Active

SMILES: O=C1N(Cc2ccccc2)C[C@@H]2[C@@H](c3ccc(Cl)cc3)[C@]3(O[C@]12O)C(=O)Nc1ccccc13
- Activity (BGC-823 [1]): Active
- inhibition [2]: Active
- Activity (HGC-27): Active

SMILES: O=C1N(Cc2ccccc2)C[C@@H]2[C@@H](c3ccc(Br)cc3)[C@]3(O[C@]12O)C(=O)Nc1ccccc13
- inhibition (BGC-823 [3]): Active
- inhibition [4]: Active
- inhibition (BGC-823 [5]): Active
- Activity (BGC-823 [6]): Active
- Activity (BGC-823 [7]): inactive
- Activity (BGC-823 [8]): inactive
- Activity (BGC-823 [9]): Dose-Dependent Effect
- IC50 (BGC-823 [1]): 750 nM
- inhibition [10]: Active
- inhibition [11]: inactive
- IC50 [12]: 810 nM
- inhibition [13]: Active
- inhibition (BGC-823 [14]): Active
- Activity (BGC-823 [15]): inactive
- inhibition (BGC-823 [16]): Active
- inhibition [17]: Active
- Activity (BGC-823 [18]): Active
- Activity (BGC-823 [19]): Dose-Dependent Effect
- Activity [20]: Non-Toxic
- Activity (BGC-823 [21]): Active
- Activity (HGC-27): Active
- Activity (BGC-823 [22]): inactive
- Activity (Mus musculus [23]): inactive
- inhibition (BGC-823 [24]): Active
- inhibition (BGC-823 [25]): Active
- inhibition [26]: inactive
- Activity (BGC-823 [27]): inactive
- Activity (BGC-823 [28]): Dose-Dependent Effect
- inhibition [29]: inactive
- inhibition [30]: inactive
- Activity [31]: Non-Toxic
- Activity (Mus musculus [32]): inactive
- Activity (BGC-823 [33]): Active
